In article PMC8074792, “An ω-3, but Not an ω-6 Polyunsaturated Fatty Acid Decreases Membrane Dipole Potential and Stimulates Endo-Lysosomal Escape of Penetratin” (Frontiers in Cell and Developmental Biology, 2021):

Legend:
[1] = test system: JY cells; test: Membrane dipole potential, di-8-ANEPPS excitation ratio, spectrofluorometry; type: cell-based, human; details: for Rexc, di-8-ANEPPS (excitation ratio 410-440 nm / 490-520 nm, positively correlates with DP): agent 20-200 μM, 10 min, 0.05% Pluronic F-127, measured at 37°C, mean of 5 experiments
Protocol: (§1) The human acute monocytic leukemia-derived cell line THP-1 and the human Epstein-Barr virus (EBV) transformed lymphoblastoid cell line JY were obtained from the American Type Culture Collection (Manassas, VA, United States) and cultivated according to their specifications. […] As controls, cells were treated with the corresponding amounts of native MβCD complexes not containing sterols. To study the effects of fatty acids, cells were incubated for 48 h in medium supplemented with saturated stearic acid (SA, Sigma Aldrich), ω-3 polyunsaturated α-linolenic acid (ALA, Sigma Aldrich) or ω-6 polyunsaturated γ-linolenic acid (GLA, Sigma Aldrich) at various concentrations ranging from 12.5 to 50 μM. […] After washing, cells were kept on ice and samples were subsequently warmed to 37°C right before measurements carried out with a Fluorolog-3 spectrofluorometer (Horiba Jobin Yvon, Edison, NJ, United States). During measurements, the cuvette holder was kept at 37°C using a circulating water bath. Excitation spectra were recorded between 380 and 550 nm with the detected emission wavelength set to 660 nm in order to minimize effects of possible changes in membrane fluidity ([Clarke and Kane, 1997]). The ratio of fluorescence intensities integrated between excitation wavelengths 410–440 nm and 490–520 nm was calculated for each sample, which positively correlates with the magnitude of DP ([Clarke and Kane, 1997]; [Kovacs et al., 2017]; [Batta et al., 2020]).

[2] = test system: THP-1 cells; test: as above; type: cell-based, human; details: for Rexc, di-8-ANEPPS (excitation ratio 410-440 nm / 490-520 nm, positively correlates with DP): agent 20-200 μM, 10 min, 0.05% Pluronic F-127, measured at 37°C, mean of 5 experiments
Protocol: as §1

[3] = test system: JY cells; test: Membrane dipole potential, F66 emission ratio, flow cytometry; type: cell-based, human; details: n = 5; for Rem, F66 (emission ratio N*/T*, 470-490 nm / 564-606 nm, negatively correlates with DP): agent 20-200 μM, 10 min, 0.05% Pluronic F-127, at least 20,000 living cells per sample
Protocol: (§2) The human acute monocytic leukemia-derived cell line THP-1 and the human Epstein-Barr virus (EBV) transformed lymphoblastoid cell line JY were obtained from the American Type Culture Collection (Manassas, VA, United States) and cultivated according to their specifications. […] As controls, cells were treated with the corresponding amounts of native MβCD complexes not containing sterols. To study the effects of fatty acids, cells were incubated for 48 h in medium supplemented with saturated stearic acid (SA, Sigma Aldrich), ω-3 polyunsaturated α-linolenic acid (ALA, Sigma Aldrich) or ω-6 polyunsaturated γ-linolenic acid (GLA, Sigma Aldrich) at various concentrations ranging from 12.5 to 50 μM. […] After washing, the fluorescence intensities of cells were determined with a FACS Aria III flow cytometer (Becton Dickinson, Mountain View, CA, United States) at 37°C. […] Data analysis was carried out in FCS Express (De Novo Software, Los Angeles, CA, United States). The ratio of emitted intensities in the two wavelength ranges (N^∗/T^∗) was determined for each cell and the average value was calculated for each sample from the data of living cells gated on FSC-SSC dot plots. The value of N^∗/T^∗ ratio negatively correlates with the magnitude of DP ([Kovacs et al., 2017]).

[4] = test system: THP-1 cells; test: as above; type: cell-based, human; details: n = 5; for Rem, F66 (emission ratio N*/T*, 470-490 nm / 564-606 nm, negatively correlates with DP): agent 20-200 μM, 10 min, 0.05% Pluronic F-127, at least 20,000 living cells per sample
Protocol: as §2

[5] = test system: JY cells; test: Membrane fluidity, TMA-DPH fluorescence anisotropy; type: cell-based, human; details: 200 μM sterol 1 h or 50 μM fatty acid 48 h, 37°C, n = 6, vs control
Protocol: (§3) 4′-(trimethylammonio)-diphenylhexatriene (TMA-DPH) was purchased from Sigma-Aldrich, dissolved in tetrahydrofuran and used for determination of membrane fluidity as described previously ([Batta et al., 2018]). […] Fluorescence intensities were measured without washing using a Fluorolog-3 spectrofluorometer (Horiba Jobin Yvon, Edison, NJ, United States) with the temperature of the cuvette holder adjusted to 37°C by a circulating water bath. The fluorescence anisotropy (r) of TMA-DPH was determined in the L-format after excitation at 352 nm and measurement of fluorescence intensities at 430 nm according to the formula: […]

[6] = test system: THP-1 cells; test: Membrane fluidity, TMA-DPH fluorescence anisotropy; type: cell-based, human; details: 200 μM sterol 1 h or 50 μM fatty acid 48 h, 37°C, n = 6, vs control
Protocol: as §3

[7] = test system: JY cells; test: Membrane hydration, PY3174 generalized polarization, confocal microscopy; type: cell-based, human; details: 200 μM sterol 1 h or 50 μM fatty acid 48 h, efficacy order 6KC > cholesterol ≥ 7DHC, effects of 7DHC and SA not statistically significant
Protocol: (§4) For these measurements, cells were labeled with 10 μM PY3174 for 20 min at room temperature. […] During processing, segmentation of images into membrane and non-membrane pixels was carried out with the manually seeded watershed algorithm using a custom-written MATLAB program as described previously ([Kovacs et al., 2017]). The average value of general polarization correlating with the degree of membrane compactness ([[…] et al., 2013]) was calculated from the data of cell membrane pixels after background subtraction using […]

[8] = test system: THP-1 cells; test: as above; type: cell-based, human; details: 200 μM sterol 1 h or 50 μM fatty acid 48 h, efficacy order 6KC > cholesterol ≥ 7DHC, all statistically significant
Protocol: as §4

[9] = test system: JY cells; test: Penetratin uptake and endo-lysosomal escape, time-correlated flow cytometry; type: cell-based, human; details: 37°C
Text: (§5) Penetratin ([…]-amide, molecular weight 2245.75 g/mol) was synthesized manually on TentaGel R RAM (Rapp Polymere, Tübingen, Germany), a low crosslinked polystyrene PEG copolymer resin by the solid-phase method of Merrifield with standard Fmoc chemistry, as described in detail in our recent study ([Batta et al., 2020]). After coupling the last arginine, one half of the penetratin was reacted with AFDye532 N-hydroxysuccinimide ester (molecular weight 723.77 g/mol, Fluoroprobes, Scottsdale, AZ, United States), while the other half with 5(6)-carboxynaphthofluorescein N-succinimidyl ester (molecular weight 573.51 g/mol, Darmstadt, Germany). Completion of the coupling was assessed by Kaiser test, which was followed by deprotection and release from the resin. After filtration and precipitation with cold diethyl ether, the crude products were purified by preparative reversed-phase HPLC (JASCO, Victoria, BC, Canada) on a C18 column and lyophilized. The purity of the products (>95%) was assessed by reversed-phase HPLC (JASCO) equipped with an analytical C18 column. […] These values well correlated with the predicted masses of the labeled peptides (2983.59 and 2833.33, respectively).
(§6) Total cellular penetratin uptake and endo-lysosomal escape was determined as described previously ([Batta et al., 2020]). Briefly, control THP-1 or JY cells and those treated with 50 μM ALA, GLA or SA for 48 h at 37°C were incubated in the continuous presence of 5 μM AFDye532-penetratin, 5 μM NF-penetratin and 0.25 μg/ml DAPI at 37°C in the thermostated sample holder of a FACS Aria III flow cytometer. The fluorescence intensity of DAPI was measured using an excitation at 405 nm and an emission filter 450/20 nm. AFDye532 and NF were excited at 488 and 561 nm, respectively, and their fluorescence was determined using emission filters 530/30 and 670/14 nm, respectively. Measurements started immediately after addition of DAPI and penetratin and continued for 20 min at 37°C. Experimental data were analyzed first in FCS Express. Time-correlated fluorescence intensity values of DAPI-negative living cells were exported after spectral compensation and the moving averages of samples were calculated with a window size of 10 s. […] During analysis, fluorescence intensity values were first normalized to the average intensity in the first time window, which was followed by calculation of the fluorescence ratio from the normalized values.

[10] = test system: THP-1 cells; test: as above; type: cell-based, human; details: 37°C
Text: as §5, §6

[11] = set-up: method as in Batta et al., 2020; details: lowering DP with the agent; ref Batta et al., 2020; cited from earlier work
Text: One of the most widely studied cellular functions influenced by the magnitude of DP is the cellular binding and uptake of certain substances including drugs ([Asawakarn et al., 2001]), β-amyloid ([Hertel et al., 1997]) and other peptides ([Cladera and O’Shea, 1998]; [Zhan and Lazaridis, 2012]). […] Although cell-penetrating peptides are promising therapeutic tools for de ...

[12] = sterol-MβCD complex, 60 min, room temperature, at the maximal applied concentration of 200 μM, n = 5, statistically significant
[13] = fatty acid 12.5-50 μM for 48 h, result at maximal 50 μM, n = 5
[14] = 50 μM fatty acid 48 h, then 50 or 200 μM cholesterol 1 h
[15] = 50 μM fatty acid 48 h, 5 μM AFDye532- and 5 μM NF-penetratin, compared at 900 s, n = 5
[16] = 5 μM AFDye532-penetratin + 5 μM NF-penetratin, flow cytometry, living cells
[17] = 5 μM AFDye532-penetratin + 5 μM NF-penetratin, continuous presence, flow cytometry, DAPI-negative living cells
[18] = 5 μM of each labeled penetratin, decline followed by a continuous gradual increase

Compound	Rexc, di-8-ANEPPS (excitation ratio 410-440 nm / 490-520 nm, positively correlates with DP) ([1]; room temperature)	Rexc, di-8-ANEPPS [1, 12]	Rexc, di-8-ANEPPS (excitation ratio 410-440 nm / 490-520 nm, positively correlates with DP) ([2]; room temperature)	Rexc, di-8-ANEPPS [2, 12]	Rem, F66 (emission ratio N*/T*, 470-490 nm / 564-606 nm, negatively correlates with DP) [3]	Rem, F66 (emission ratio N*/T*, 470-490 nm / 564-606 nm, negatively correlates with DP) [4]	TMA-DPH fluorescence anisotropy (inversely correlates with membrane fluidity) [5]	TMA-DPH fluorescence anisotropy (inversely correlates with membrane fluidity) [6]	PY3174 generalized polarization in the cell membrane (inversely correlates with membrane hydration) [7]	PY3174 generalized polarization in the cell membrane (inversely correlates with membrane hydration) [8]	also measured
CC(C)CCC[C@@H](C)[C@H]1CC[C@H]2[C@@H]3CC(=O)[C@H]4C[C@@H](O)CC[C@]4(C)[C@H]3CC[C@]12C [6KC, 3β-hydroxy-5α-cholestan-6-one]	dose-dependently increased	robustly elevated	dose-dependently increased	robustly elevated	dose-dependent decreases	dose-dependent decreases	did not reach statistical significance	did not reach statistical significance	shifted toward the positive direction	shifted toward the positive direction	
CC(C)CCC[C@@H](C)[C@H]1CC[C@H]2C3=CC=C4C[C@@H](O)CC[C@]4(C)[C@H]3CC[C@]12C [7DHC, 7-dehydrocholesterol]		slightly raised		slightly raised			significantly elevated	significantly elevated	shifted toward the positive direction	shifted toward the positive direction	
CCCCCCCCCCCCCCCCCC(=O)O [SA, stearic acid]							did not reach statistical significance	did not reach statistical significance	increased the generalized polarization, albeit to a miniscule extent	increased the generalized polarization, albeit to a miniscule extent	Rexc, di-8-ANEPPS [1, 13]: slightly higher; Rexc, di-8-ANEPPS [2, 13]: slightly higher; effect of fatty acid pretreatment on cholesterol-induced DP elevation (Rem, F66) [3, 14]: a tendency to augment the cholesterol-induced DP changes; effect of fatty acid pretreatment on cholesterol-induced DP elevation (Rem, F66) [4, 14]: a tendency to augment the cholesterol-induced DP changes; Rem, F66 ([4]; fatty acid 12.5-50 μM for 48 h): opposite changes were observed in response to SA or GLA with the former not reaching the level of significance; ratio of NF and AFDye532 intensities (endo-lysosomal escape of penetratin) vs controls [9, 15]: no significant changes; ratio of NF and AFDye532 intensities (endo-lysosomal escape of penetratin) vs controls [10, 15]: no significant changes
CC(C)CCC[C@@H](C)[C@H]1CC[C@H]2[C@@H]3CC=C4C[C@@H](O)CC[C@]4(C)[C@H]3CC[C@]12C [cholesterol]		moderately increased		moderately increased			significantly elevated	significantly elevated	shifted toward the positive direction	shifted toward the positive direction	
O=C(CCc1ccc(O)cc1)c1c(O)cc(O)cc1O [phloretin, 3-(4-hydroxyphenyl)-1-(2,4,6-trihydroxyphenyl) propan-1-one]	dose-dependently decreased		dose-dependently decreased		increased Rem, F66 values implying lower magnitudes of DP, this change did not reach the level of significance in one of the cell lines	increased Rem, F66 values implying lower magnitudes of DP, this change did not reach the level of significance in one of the cell lines					cellular uptake and endo-lysosomal escape of penetratin [11]: increased
RQIKIWFQNRRMKWKK-amide [penetratin]											duration of fast increase of NF signal (endo-lysosomal escape of penetratin), followed by slower continuous rise [9, 16]: 180 to 240 s; time of saturation of AFDye532 signal (total cellular penetratin concentration) [9, 17]: 120 to 180 s; time course of ratio of NF and AFDye532 (fraction of penetratin in the cytosol) [9, 18]: initially declined; duration of fast increase of NF signal (endo-lysosomal escape of penetratin), followed by slower continuous rise [10, 16]: 180 to 240 s; time of saturation of AFDye532 signal (total cellular penetratin concentration) [10, 17]: 120 to 180 s; time course of ratio of NF and AFDye532 (fraction of penetratin in the cytosol) [10, 18]: initially declined
